The values that follow come from PMC8828861 (Communications Biology, 2022).

Series [1] addresses M. tuberculosis Rho (MtbRho) (Mycobacterium tuberculosis, UniProt P9WHF3). Format: binding.
The series “SEC-MALS” concerns the molecule itself. The series can be described thus: SEC-MALS.

M. tuberculosis Rho (MtbRho), sequence (P9WHF3 whole entry): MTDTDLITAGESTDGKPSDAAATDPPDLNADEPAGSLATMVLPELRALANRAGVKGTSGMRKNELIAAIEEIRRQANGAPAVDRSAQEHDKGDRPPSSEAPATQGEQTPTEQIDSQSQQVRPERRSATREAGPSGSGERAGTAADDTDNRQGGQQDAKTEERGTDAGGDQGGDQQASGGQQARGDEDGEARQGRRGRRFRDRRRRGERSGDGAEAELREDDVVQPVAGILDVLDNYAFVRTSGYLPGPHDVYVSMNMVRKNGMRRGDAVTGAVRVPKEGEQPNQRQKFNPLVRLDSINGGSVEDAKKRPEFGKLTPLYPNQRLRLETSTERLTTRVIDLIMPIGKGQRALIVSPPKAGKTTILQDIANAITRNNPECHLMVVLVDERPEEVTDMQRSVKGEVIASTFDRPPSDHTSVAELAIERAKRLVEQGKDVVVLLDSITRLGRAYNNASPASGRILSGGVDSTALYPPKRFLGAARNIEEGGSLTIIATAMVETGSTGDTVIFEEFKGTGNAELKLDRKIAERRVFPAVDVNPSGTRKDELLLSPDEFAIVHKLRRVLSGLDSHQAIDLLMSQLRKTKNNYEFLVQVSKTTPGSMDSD

In the case of `Nc1ncnc2c1ncn2[C@@H]1O[C@H](COP(=O)(O)OP(=O)(O)OP(=O)(O)O)[C@@H](O)[C@H]1O` [ATP], the “cryo-EM structure, 3.3 Å, 6 ATP per hexamer” value in series [1] is on record as “clear electron density in all the ATPase pockets of MtbRho reveals that ATP ligands are held by a network”.

B1: Mycobacterium tuberculosis transcription termination factor Rho (enzyme)
chain: TDTDLITAGESTDGKPSDAAATDPPDLNADEPAGSLATMVLPELRALANRAGVKGTSGMRKNELIAAIEEIRRQANGAPAVDRSAQEHDKGDRPPSSEAPATQGEQTPTEQIDSQSQQVRPERRSATREAGPSGSGERAGTAADDTDNRQGGQQDAKTEERGTDAGGDQGGDQQASGGQQARGDEDGEARQGRRGRRFRDRRRRGERSGDGAEAELREDDVVQPVAGILDVLDNYAFVRTSGYLPGPHDVYVSMNMVRKNGMRRGDAVTGAVRVPKEGEQPNQRQKFNPLVRLDSINGGSVEDAKKRPEFGKLTPLYPNQRLRLETSTERLTTRVIDLIMPIGKGQRALIVSPPKAGKTTILQDIANAITRNNPECHLMVVLVDERPEEVTDMQRSVKGEVIASTFDRPPSDHTSVAELAIERAKRLVEQGKDVVVLLDSITRLGRAYNNASPASGRILSGGVDSTALYPPKRFLGAARNIEEGGSLTIIATAMVETGSTGDTVIFEEFKGTGNAELKLDRKIAERRVFPAVDVNPSGTRKDELLLSPDEFAIVHKLRRVLSGLDSHQAIDLLMSQLRKTKNNYEFLVQVSKTTPGSMDSD
notes: also called MtbRho; WT MtbRho
With B1, in the series “SEC-MALS”, the “stoichiometry N” value turned out to be 6.
